Earlier results in patent publication US8778869B2, “Tissue regeneration system” (Wisconsin Alumni Research Foundation, priority 2010, dated 2014).

Molecule | concentration of optimal in vitro biological activity
fibroblast growth factor-2 [FGF-2] | approximately 1 nM
bone morphogenetic protein-2 (protein, listed as Homo sapiens) MVAGTRCLLALLLPQVLLGGAAGLVPELGRRKFAAASSGRPSSQPSDEVLSEFELRLLSMFGLKQRPTPSRDAVVPPYMLDLYRRHSGQPGSPAPDHRLERAASRANTVRSFHHEESLEELPETSGKTTRRFFFNLSSIPTEEFITSAELQVFREQMQDALGNNSSFHHRINIYEIIKPATANSKFPVTRLLDTRLVNQNASRWESFDVTPAVMRWTAQGHANHGFVVEVAHLEEKQGVSKRHVRISRSLHQDEHSWSQIRPLLVTFGHDGKGHPLHKREKRQAKHKQRKRLKSSCKRHPLYVDFSDVGWNDWIVAPPGYHAFYCHGECPFPLADHLNSTNHAIVQTLVNSVNSKIPKACCVPTELSAISMLYLDENEKVVLKNYQDMVVEGCGCR | approximately 1 nM
